Converted amounts (≈) assume the structure as drawn.
Key:
[1] = content of 3-chloro-6-[3,6-dihydro-4-(3-methylphenyl)-1(2H)-pyridinyl]pyridazine in solutions of γ-CD derivatives (procedure of example 4); format: physicochemical
Description: (§1) Starting from a 5% stock solution of a particular γ-CD derivative in a phosphate buffer of pH 7.4, a dilution series was obtained with concentrations varying of from 0% to 5% with 0.5% steps. 3 ml of these solutions were pipetted into a closed container containing an appropriate amount of progesteron. After 5 days shaking at 25° C., the thus obtained mixture was filtered over a membrane filter (pore diameter: 0.22 μm), and the content of progesteron was determined with high pressure liquid chromatography (using a column of 25 cm length; 5 mm internal diameter; packed with 5 μm ODS-hypersil (RP-18); eluent: acetonitrile/water; U.V. detection). The results of these concentration measurements for a number of the γ-CD derivatives of the present invention and for unsubstituted γ-CD gathered in the following table.
Following the procedures described in example 4 the content of 3-chloro-6-[3,6-dihydro-4-(3-methylphenyl)-1(2H)-pyridinyl]pyridazine was determined in solutions containing various concentrations of γ-CD derivatives. Said pyridazine compound is described in Published Europ. Pat. Appl. No. 0,156,433 as a useful anti-viral agent.

[2] = content of progesteron dissolved in solutions of γ-CD derivatives (phosphate buffer pH 7.4, 5 days shaking at 25° C., HPLC); format: physicochemical; conditions: phosphate buffer pH 7.4, 25° C.
Description: as §1

[3] = cited from earlier work
[4] = 1% γ-CD or derivative (weight by volume)
[5] = 2.5% γ-CD or derivative (weight by volume)
[6] = 5% γ-CD or derivative (weight by volume)

Cc1cccc(C2=CCN(c3ccc(Cl)nn3)CC2)c1 [3-chloro-6-[3,6-dihydro-4-(3-methylphenyl)-1(2H)-pyridinyl]pyridazine]
solubility thermodynamic at 120 h ([1]; phosphate buffer ph 7.4, pH 7.4, aqueous buffer, 0% γ-CD derivative (weight by volume)): 0.4 µg/mL (≈ 1.4 µM)

CC(=O)[C@H]1CC[C@H]2[C@@H]3CCC4=CC(=O)CC[C@]4(C)[C@H]3CC[C@]12C [progesteron]
solubility thermodynamic at 120 h ([2]; aqueous buffer, 0% γ-CD derivative (weight by volume)): 5.9 µg/mL (≈ 18.8 µM)

OC[C@H]1O[C@@H]2O[C@H]3[C@H](O)[C@@H](O)[C@@H](O[C@H]4[C@H](O)[C@@H](O)[C@@H](O[C@H]5[C@H](O)[C@@H](O)[C@@H](O[C@H]6[C@H](O)[C@@H](O)[C@@H](O[C@H]7[C@H](O)[C@@H](O)[C@@H](O[C@H]8[C@H](O)[C@@H](O)[C@@H](O[C@H]9[C@H](O)[C@@H](O)[C@@H](O[C@H]1[C@H](O)[C@H]2O)O[C@@H]9CO)O[C@@H]8CO)O[C@@H]7CO)O[C@@H]6CO)O[C@@H]5CO)O[C@@H]4CO)O[C@@H]3CO [unsubstituted γ-CD, γ-cyclodextrin]
water solubility [3]: excellent water solubility | content of progesteron ([2]; 0.5% γ-CD or derivative (weight by volume)): 425 µg/mL | content of progesteron [2, 4]: 343 µg/mL | content of progesteron ([2]; 1.5% γ-CD or derivative (weight by volume)): 275 µg/mL | content of progesteron ([2]; 2% γ-CD or derivative (weight by volume)): 203 µg/mL | content of progesteron [2, 5]: 163 µg/mL | content of progesteron ([2]; 3% γ-CD or derivative (weight by volume)): 93 µg/mL | content of progesteron ([2]; 3.5% γ-CD or derivative (weight by volume)): 60 µg/mL | content of progesteron ([2]; 4% γ-CD or derivative (weight by volume)): 54 µg/mL | content of progesteron ([2]; 4.5% γ-CD or derivative (weight by volume)): 46 µg/mL | content of progesteron [2, 6]: 45 µg/mL | content of 3-chloro-6-[3,6-dihydro-4-(3-methylphenyl)-1(2H)-pyridinyl]pyridazine [1, 4]: 2.0 µg/mL | content of 3-chloro-6-[3,6-dihydro-4-(3-methylphenyl)-1(2H)-pyridinyl]pyridazine [1, 5]: 0.8 µg/mL | content of 3-chloro-6-[3,6-dihydro-4-(3-methylphenyl)-1(2H)-pyridinyl]pyridazine [1, 6]: 0.8 µg/mL

Reference: US4870060A, “Derivatives of γ-cylodextrin” (Janssen Pharmaceutica, priority 1988, dated 1989)
